{"source": "patent US12152991B2", "about": "“Time-resolved laser-induced fluorescence spectroscopy systems and uses thereof” (Cedars-Sinai Medical Center, priority 2013, dated 2024)", "test_system": "rabbit brain tissue", "assay": "Continuous NADH fluorescence monitoring (TRLIFS) in ex-vivo brain tissue exposed to Rotenone", "format": "cell-based", "conditions": "FIG. 6", "from_the_text": "In order to excite the tissue, a Q-switched Nd:YaG laser emitting at a wavelength of 350 nm was used, running at 1 KHz with a pulse width (FWHM) of 400 ps (Teem Photonics PNVM02510). […] The excitation light was delivered to the tissue using a custom made trifurcated optical probe. The probe consisted of a central 600 micron fiber for delivering the excitation light surrounded by twelve 200 micron fibers to collect the fluorescence (FIG. 3). Every other fiber from the twelve collection fibers were bundled together forming two channels. One collection channel/bundle connected to a spectrometer (Ocean Optics, Maya), which measured the fluorescence spectrum every 100 ms and the other channel/bundle connected to a beam splitter (demultiplexer). The beam splitter at 452 nm of wavelength separated the significant free and bound fluorescence, which was recorded both by MCP-PMT and spectrometer.\nRabbit brain was removed after sacrificing the animal in the OR and transported in cold oxygen rich Kreb-ringer solution to the laboratory. […] A baseline NADH (bound and free) was recorded till the fluorescence from the tissue equilibrated and plateaued. After approximately 30 mins, a measured dose of 50 nM rotenone, which blocks the binding of NADH to […] in the mitochondrion, was added. […]\nThe effect of various concentrations of Rotenone on the rabbit brain tissue was recorded (FIG. 6). […]", "data": [{"compound": "C=C(C)[C@H]1Cc2c(ccc3c2O[C@@H]2COc4cc(OC)c(OC)cc4[C@@H]2C3=O)O1", "note": "[Rotenone]", "values": [{"measurement": "NADH level (fluorescence, free and bound)", "setting": "ex-vivo rabbit brain cortex in Kreb-Ringer solution, 95% O2/5% CO2, 50 nM Rotenone added, excitation 350 nm", "result": "increase in NADH level"}, {"measurement": "NADH fluorescence", "setting": "ex-vivo rabbit brain cortex, increasing concentrations of Rotenone added every 10 mins", "result": "NADH fluorescence increased"}]}]}
